Experimental data reported in article PMC7022718, “Composition and Insecticidal Activity of Essential Oil of Bacopa caroliniana and Interactive Effects of Individual Compounds on the Activity” (Insects, 2019).

Test system: T1, acetylcholine esterase (AChE), crude, from rice weevil
T1 construct: gene ace1; native, unpurified; supernatant of whole adult homogenate in phosphate buffer pH 7.4 (8775 g, 20 min)
Assay: Ellman colorimetric assay, […] nm
Assay type: biochemical, Sitophilus oryzae
Details: crude enzyme; acetylthiocholine iodide 2.5 mM, pH 7.4, 35 °C, 15 min preincubation, compound in ethanol

Compound	AChE-IC50 (μL mL^-1) [µL mL^−1]
C=C1CC[C@H]2O[C@]2(C)CC[C@@H]2[C@@H]1CC2(C)C [Caryophyllene oxide]	> 500
C=CC(C)(O)CCC=C(C)CCC=C(C)C (stereo not drawn) [Nerolidol]	331.24±21.55
CC1=CCC(C(C)(C)O)CC1 (stereo not drawn) [α-Terpineol]	18.39 ± 1.52
CC1=CCC(C(C)C)=CC1 [γ-Terpinene]	> 500
CC1=CC=C(C(C)C)CC1 [α-Terpinene]	> 500
C=C1CCC2(C(C)C)CC12 (stereo not drawn) [Sabinene]	85.03 ± 0.20
CC1=CCC(O)(C(C)C)CC1 (stereo not drawn) [4-Terpineol]	11.29 ± 0.02
CC1=CCC2CC1C2(C)C (stereo not drawn) [α-Pinene]	1.81 ± 0.20
CC(C)=CCCC(C)CCO (stereo not drawn) [Citronellol]	86.08 ± 1.09
CC1=CCC(=C(C)C)CC1 [α-Terpinolene]	1.10 ± 0.17
C=CC(O)CCCCC (stereo not drawn) [1-Octen-3-ol]	14.82 ± 0.12
Cc1ccc(C(C)C)cc1 [p-Cymene]	> 500
C=C(C)C1CC=C(C)CC1 (stereo not drawn) [Limonene]	9.57 ± 1.37
C=C1CC/C=C(\C)CC[C@@H]2[C@@H]1CC2(C)C [β-Caryophyllene]	> 500
C=C1CCC2CC1C2(C)C (stereo not drawn) [β-Pinene]	> 500
C=CC(C)(O)CCC=C(C)C (stereo not drawn) [Linalool]	44.33 ± 1.31
CC12CCC(CC1)C(C)(C)O2 [1,8-Cineole]	31.13 ± 2.20
C=CC(=C)CCC=C(C)C [β-Myrcene]	> 500
